Data taken from the supplement of paper PMC10307832.

Tests used:
Test in all cases: relative viability (nuclei count vs DMSO), 5 days (fraction); higher = more cells survive
Quizartinib + Trametinib = compound: CC(C)(C)c1cc(NC(=O)Nc2ccc(-c3cn4c(n3)sc3cc(OCCN5CCOCC5)ccc34)cc2)no1 [Quizartinib] + CC(=O)Nc1cccc(-n2c(=O)n(C3CC3)c(=O)c3c(Nc4ccc(I)cc4F)n(C)c(=O)c(C)c32)c1 [Trametinib] (partner 0.02 µM)
Method in brief: (§1)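 Values are medians from duplicate plates. Each reflects relative viability, defined as the nuclei count of treated wells over that of vehicle wells. Lung cancer cell lines in 1536-well plates were pin-tool dosed one day after seeding with one drug alone or with a fixed anchor-drug dose plus five library-drug doses (not always all listed) in √10 steps, then fixed, stained and imaged at 4× after 5 days.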

Quizartinib + Pictilisib = compound: CC(C)(C)c1cc(NC(=O)Nc2ccc(-c3cn4c(n3)sc3cc(OCCN5CCOCC5)ccc34)cc2)no1 [Quizartinib] + CS(=O)(=O)N1CCN(Cc2cc3nc(-c4cccc5[nH]ncc45)nc(N4CCOCC4)c3s2)CC1 [Pictilisib] (partner 1 µM)
Method in brief: as §1

Quizartinib + AZD7762 = compound: CC(C)(C)c1cc(NC(=O)Nc2ccc(-c3cn4c(n3)sc3cc(OCCN5CCOCC5)ccc34)cc2)no1 [Quizartinib] + NC(=O)Nc1cc(-c2cccc(F)c2)sc1C(=O)N[C@H]1CCCNC1 [AZD7762] (partner 0.2 µM)
Method in brief: as §1

YM155 + Phenformin = compound: COCC[n+]1c2c(n(Cc3cnccn3)c1C)C(=O)c1ccccc1C2=O [YM155] + N=C(N)NC(=N)NCCc1ccccc1 [Phenformin] (partner 250 µM)
Method in brief: as §1

Row | Cell Line | relative viability (Quizartinib + Trametinib; first compound 0.001 µM) | relative viability (Quizartinib + Trametinib; first compound 0.003162 µM) | relative viability (Quizartinib + Trametinib; first compound 0.01 µM) | relative viability (Quizartinib + Trametinib; first compound 0.03162 µM) | relative viability (Quizartinib + Trametinib; first compound 0.1 µM) | relative viability (Quizartinib + Pictilisib; first compound 0.001 µM) | relative viability (Quizartinib + Pictilisib; first compound 0.003162 µM) | relative viability (Quizartinib + Pictilisib; first compound 0.01 µM) | relative viability (Quizartinib + Pictilisib; first compound 0.03162 µM) | relative viability (Quizartinib + Pictilisib; first compound 0.1 µM) | relative viability (Quizartinib + AZD7762; first compound 0.001 µM) | relative viability (Quizartinib + AZD7762; first compound 0.003162 µM) | relative viability (Quizartinib + AZD7762; first compound 0.01 µM) | relative viability (Quizartinib + AZD7762; first compound 0.03162 µM) | relative viability (Quizartinib + AZD7762; first compound 0.1 µM) | relative viability (YM155 + Phenformin; first compound 0.002 µM) | relative viability (YM155 + Phenformin; first compound 0.006325 µM) | relative viability (YM155 + Phenformin; first compound 0.02 µM) | relative viability (YM155 + Phenformin; first compound 0.06325 µM)
1 | 201T | 0.595 | 0.696 | 0.755 | 0.708 | 0.742 | 0.668 | 0.678 | 0.669 | 0.68 | 0.695 | 0.611 | 0.573 | 0.653 | 0.61 | 0.646 | 0.405 | 0.443 | 0.492 | 0.475
2 | A549 | – | – | – | – | – | 0.457 | 0.441 | 0.598 | 0.211 | 0.614 | – | – | – | – | – | 0.17 | 0.0769 | 0.177 | 0.137
3 | A-427 | 0.517 | 0.691 | 0.675 | 0.591 | 0.704 | 0.702 | 0.709 | 0.708 | 0.68 | 0.668 | 0.467 | 0.676 | 0.722 | 0.639 | 0.718 | 0.314 | 0.39 | 0.365 | 0.333
4 | ABC-1 | – | – | – | – | – | 0.502 | 0.683 | 0.648 | 0.626 | 0.769 | 0.717 | 0.783 | 0.784 | 0.913 | 0.827 | 0.271 | 0.239 | 0.233 | 0.207
5 | BEN | 0.998 | 1.02 | 1.19 | 0.925 | 1.22 | 0.499 | 0.613 | 0.55 | 0.496 | 0.543 | 0.66 | 0.766 | 0.563 | 0.582 | 0.676 | 0.28 | 0.258 | 0.227 | 0.266
6 | CAL-12T | 0.371 | 0.371 | 0.345 | 0.271 | 0.352 | 0.47 | 0.536 | 0.308 | 0.398 | 0.547 | 0.632 | 0.663 | 0.759 | 0.495 | 0.689 | 0.497 | 0.607 | 0.658 | 0.642
7 | COR-L23 | 0.518 | 0.552 | 0.595 | 0.479 | 0.543 | 0.535 | 0.758 | 0.698 | 0.589 | 0.763 | – | – | – | – | – | 0.399 | 0.446 | 0.451 | 0.393
8 | COR-L 105 | 0.449 | 0.445 | 0.507 | – | 0.516 | 0.397 | 0.49 | 0.401 | 0.365 | 0.371 | – | – | – | – | – | 0.343 | 0.462 | 0.508 | 0.581
9 | Calu-6 | – | – | – | – | – | 0.877 | 0.867 | 0.988 | 0.607 | 0.858 | – | – | – | – | – | – | – | – | –
10 | ChaGo-K-1 | – | 0.881 | 0.889 | 0.9 | 0.865 | 0.49 | 0.905 | 0.669 | – | 1.01 | – | 0.841 | 0.981 | 0.84 | 0.932 | 0.469 | 0.488 | 0.519 | 0.578
11 | EBC-1 | – | – | – | – | – | 0.423 | 0.285 | 0.406 | 0.37 | 0.452 | – | – | – | – | – | – | – | – | –
12 | EKVX | – | 0.327 | 0.331 | 0.437 | 0.284 | 0.464 | 0.478 | 0.471 | 0.407 | 0.476 | – | 0.621 | 0.744 | 0.67 | 0.841 | 0.239 | 0.218 | 0.24 | 0.231
13 | EMC-BAC-2 | 0.811 | 0.899 | 0.865 | – | 0.857 | 0.561 | 0.562 | 0.54 | 0.511 | 0.592 | 0.909 | 1.21 | 1.16 | – | 1.19 | 0.463 | 0.514 | 0.542 | 0.568
14 | EPLC-272H | 0.291 | 0.254 | 0.241 | 0.283 | 0.304 | 0.314 | 0.391 | 0.405 | 0.323 | 0.398 | 0.287 | 0.325 | 0.258 | 0.208 | 0.231 | 0.347 | 0.317 | 0.286 | 0.304
15 | H3255 | – | 0.561 | 0.653 | 0.637 | 0.663 | 0.486 | 0.404 | 0.507 | 0.471 | 0.47 | 0.905 | 0.894 | 0.911 | 0.911 | 1.03 | 0.335 | 0.336 | 0.376 | 0.374
16 | HARA | 0.508 | 0.715 | 0.626 | 0.555 | 0.459 | 0.345 | 0.372 | 0.305 | 0.3 | 0.477 | 0.401 | 0.193 | 0.515 | 0.26 | 0.334 | 0.476 | 0.444 | 0.48 | 0.425
17 | HCC-15 | 0.403 | 0.387 | 0.409 | 0.326 | 0.364 | 0.433 | 0.788 | 0.755 | 0.607 | 0.707 | 1.35 | 1.13 | 0.951 | 1.14 | 0.958 | 0.465 | 0.464 | 0.464 | 0.494
18 | HCC-44 | 0.892 | 1.05 | 1.03 | 1.05 | 1.03 | 0.669 | 0.516 | 0.56 | 0.626 | 0.555 | 0.976 | 1.04 | 0.988 | 1.02 | 1.02 | 0.132 | 0.283 | 0.248 | 0.202
19 | HCC-78 | 0.727 | 0.662 | 0.848 | 0.593 | 0.913 | 0.21 | 0.185 | 0.206 | 0.0784 | 0.216 | 0.671 | 0.805 | 0.539 | 0.535 | 0.777 | 0.638 | 0.73 | 0.779 | 0.76
20 | HCC-366 | 0.314 | 0.383 | 0.294 | 0.326 | 0.346 | – | 0.138 | 0.103 | 0.137 | 0.138 | 0.272 | 0.181 | 0.285 | 0.119 | 0.199 | 0.592 | 0.55 | 0.628 | 0.597
